Data published in patent publication US8785439B2, “2,5,7-substituted oxazolopyrimidine derivatives” (Sanofi, priority 2010, dated 2014).

Molecular target: T1, human Edg-1 receptor (Homo sapiens, UniProt P21453)
T1 construct: FLAG (N); expressed in transfected cells; membrane preparation
Assay: GTP-γ-S assay using human Edg-1 receptors (SPA, CHO Flp-In cell membrane preparation)
Format: biochemical
Conditions: test compound at 10 μM; high control 10 μM S1P regarded as 100% activation; background-corrected; triplicate
Outline: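 Membranes from CHO Flp-In cells stably overexpressing N-terminally FLAG-tagged human Edg-1 were used in a scintillation-proximity GTP-γ-S binding assay to measure receptor activation by compounds.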

T1 sequence (P21453 whole entry): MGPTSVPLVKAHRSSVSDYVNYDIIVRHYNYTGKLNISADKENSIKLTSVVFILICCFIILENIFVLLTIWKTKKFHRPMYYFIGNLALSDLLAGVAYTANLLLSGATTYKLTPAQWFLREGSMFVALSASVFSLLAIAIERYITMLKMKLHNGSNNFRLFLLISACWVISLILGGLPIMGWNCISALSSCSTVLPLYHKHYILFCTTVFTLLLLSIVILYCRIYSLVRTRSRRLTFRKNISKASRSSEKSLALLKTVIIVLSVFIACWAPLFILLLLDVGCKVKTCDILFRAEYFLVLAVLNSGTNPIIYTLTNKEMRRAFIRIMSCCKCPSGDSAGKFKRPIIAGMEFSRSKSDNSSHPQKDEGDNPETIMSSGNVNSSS

Molecule | % Activation (Edg-1 receptor activation in percent of the activation by 10 μM S1P) [%]
5-(2-fluoro-phenoxy)-2-(1-oxy-pyridin-3-yl)-7-propoxy-oxazolo[5,4-d]pyrimidine [Example 109] | 108

Same assay, conditions: test compound at 10 μM; high control 10 μM S1P regarded as 100% activation; background-corrected; triplicate; read-out: % Activation (Edg-1 receptor activation in percent of the activation by 10 μM S1P)

Molecule | activation at 10 µM [%]
C=CCCCOc1nc(OCC2CC2)c2nc(-c3cccc(C)c3)oc2n1 [Example 16, 7-cyclopropylmethoxy-5-pent-4-enyloxy-2-(3-methyl-phenyl)-oxazolo[5,4-d]pyrimidine] | 83
CCCOc1nc(Oc2ccccc2C(F)(F)F)nc2oc(-c3cccc(C)c3)nc12 [Example 141, 7-propoxy-2-(3-methyl-phenyl)-5-(2-trifluoromethyl-phenoxy)-oxazolo[5,4-d]pyrimidine] | 103
CCCOc1nc(Oc2cccc3c2OC(C)(C)C3)nc2oc(-c3cc(F)ccc3Cl)nc12 [Example 84, 2-(2-chloro-5-fluoro-phenyl)-5-(2,2-dimethyl-2,3-dihydro-benzofuran-7-yloxy)-7-propoxy-oxazolo[5,4-d]pyrimidine] | 60
CCCOc1nc(SC2CCS(=O)(=O)C2)nc2oc(-c3cccc(F)c3)nc12 (stereo not drawn) [Example 14, 5-(1,1-dioxo-tetrahydro-1lambda6-thiophen-3-ylsulfanyl)-2-(3-fluoro-phenyl)-7-propoxy-oxazolo[5,4-d]pyrimidine] | 72
CCCOc1nc(Oc2cccc(C)c2)nc2oc(-c3cccc(C)c3)nc12 [Example 98, 7-propoxy-2-(3-methyl-phenyl)-5-(3-methyl-phenyl)oxy-oxazolo[5,4-d]pyrimidine] | 107
CCCOc1nc(Oc2ccc(Cl)c(Cl)c2)nc2oc(-c3cccc(C)c3)nc12 [Example 1, 5-(3,4-Dichloro-phenoxy)-7-propoxy-2-(3-methyl-phenyl)-oxazolo[5,4-d]pyrimidine] | 62
CCCOc1nc(Oc2c(F)cccc2F)nc2oc(-c3cccc(C)c3)nc12 [Example 97, 5-(2,6-difluoro-phenoxy)-7-propoxy-2-(3-methyl-phenyl)-oxazolo[5,4-d]pyrimidine] | 124
CCCOc1nc(Oc2cccc(S(N)(=O)=O)c2)nc2oc(-c3cccc(F)c3)nc12 [Example 23, 3-[2-(3-fluoro-phenyl)-7-propoxy-oxazolo[5,4-d]pyrimidin-5-yloxy]-benzenesulfonamide] | 47
CCOc1nc(Oc2ccccc2F)nc2oc(-c3cc(C)c(OC)c(C)c3)nc12 [Example 46, 7-ethoxy-5-(2-fluoro-phenoxy)-2-(4-methoxy-3,5-dimethyl-phenyl)-oxazolo[5,4-d]pyrimidine] | 102
CCCOc1nc(OCC2(C)COC2)nc2oc(-c3cc(F)ccc3Cl)nc12 [Example 152, 2-(2-chloro-5-fluoro-phenyl)-5-(3-methyl-oxetan-3-ylmethoxy)-7-propoxy-oxazolo[5,4-d]pyrimidine] | 46
CCCOc1nc(OC2CCC(C(F)(F)F)CC2)nc2oc(-c3cc(F)ccc3Cl)nc12 (stereo not drawn) [Example 154, 2-(2-chloro-5-fluoro-phenyl)-7-propoxy-5-(4-trifluoromethyl-cyclohexyloxy)-oxazolo[5,4-d]pyrimidine] | 87
CCCOc1nc(Oc2cc(C)ccc2Cl)nc2oc(-c3cccc(C)c3)nc12 [Example 137, 5-(2-chloro-5-methyl-phenoxy)-7-propoxy-2-(3-methyl-phenyl)-oxazolo[5,4-d]pyrimidine] | 89
CCCOc1nc(Oc2cc(F)ccc2F)nc2oc(-c3cccc(C)c3)nc12 [Example 94, 5-(2,5-difluoro-phenoxy)-7-propoxy-2-(3-methyl-phenyl)-oxazolo[5,4-d]pyrimidine] | 122
CCCOc1nc(Oc2ccc(C#N)c(F)c2)nc2oc(-c3cccc(C)c3)nc12 [Example 134, 2-fluoro-4-(7-propoxy-2-(3-methyl-phenyl)-oxazolo[5,4-d]pyrimidin-5-yloxy)-benzonitrile] | 104
CCCOc1nc(Oc2ccc(F)cc2OC)nc2oc(-c3cccc(C)c3)nc12 [Example 99, 5-(4-fluoro-2-methoxy-phenoxy)-7-propoxy-2-(3-methyl-phenyl)-oxazolo[5,4-d]pyrimidine] | 91
CCCOc1nc(OC2COC2)nc2oc(-c3cccc(C)c3)nc12 [Example 38, 5-(oxetan-3-yloxy)-7-propoxy-2-(3-methyl-phenyl)-oxazolo[5,4-d]pyrimidine] | 70
CCCOc1nc(NC2CCC(C)CC2)nc2oc(-c3cc(F)ccc3Cl)nc12 (stereo not drawn) [Example 113, [2-(2-chloro-5-fluoro-phenyl)-7-propoxy-oxazolo[5,4-d]pyrimidin-5-yl]-(4-methyl-cyclohexyl)-amine] | 52
CCCOc1nc(Oc2cc(C)nn2C)nc2oc(-c3cccc(C)c3)nc12 [Example 25, 5-(2,5-dimethyl-2H-pyrazol-3-yloxy)-7-propoxy-2-(3-methyl-phenyl)-oxazolo[5,4-d]pyrimidine] | 110
CCCOc1nc(Oc2ccc(F)cc2F)nc2oc(-c3cccc(C)c3)nc12 [Example 95, 5-(2,4-difluoro-phenoxy)-7-propoxy-2-(3-methyl-phenyl)-oxazolo[5,4-d]pyrimidine] | 107

Molecule | activation at 10 µM [%]
CCCOc1nc(Oc2cc(Cl)ccc2Cl)nc2oc(-c3cccc(C)c3)nc12 [Example 120, 5-(2,5-dichloro-phenoxy)-7-propoxy-2-(3-methyl-phenyl)-oxazolo[5,4-d]pyrimidine] | 86
CCCOc1nc(Oc2ccccc2C(C)C)nc2oc(-c3cccc(C)c3)nc12 [Example 124, 5-(2-isopropyl-phenoxy)-7-propoxy-2-(3-methyl-phenyl)-oxazolo[5,4-d]pyrimidine] | 112
CCCOc1nc(Oc2ccccc2)nc2oc(-c3cc(F)ccc3Cl)nc12 [Example 78, 2-(2-chloro-5-fluoro-phenyl)-5-phenoxy-7-propoxy-oxazolo[5,4-d]pyrimidine] | 70
CCCOc1nc(Oc2cc(C)cc(C)c2C)nc2oc(-c3cccc(C)c3)nc12 [Example 123, 7-propoxy-2-(3-methyl-phenyl)-5-(2,3,5-trimethyl-phenoxy)-oxazolo[5,4-d]pyrimidine] | 65
CCCOc1nc(Oc2ccc(SC(F)(F)F)cc2)nc2oc(-c3cccc(F)c3)nc12 [Example 82, 2-(3-fluoro-phenyl)-7-propoxy-5-(4-trifluoromethylsulfanyl-phenoxy)-oxazolo[5,4-d]pyrimidine] | 107
CCCOc1nc(Oc2ccccc2C(C)(C)C)nc2oc(-c3cccc(C)c3)nc12 [Example 96, 5-(2-tert-butyl-phenoxy)-7-propoxy-2-(3-methyl-phenyl)-oxazolo[5,4-d]pyrimidine] | 67
CCCOc1nc(Oc2cccc(SC(F)(F)F)c2)nc2oc(-c3cc(F)ccc3Cl)nc12 [Example 68, 2-(2-chloro-5-fluoro-phenyl)-7-propoxy-5-(3-trifluoromethylsulfanyl-phenoxy)-oxazolo[5,4-d]pyrimidine] | 41
CCCOc1nc(Oc2ccccc2F)nc2oc(-c3cccnc3)nc12 [Example 107, 5-(2-fluoro-phenoxy)-7-propoxy-2-pyridin-3-yl-oxazolo[5,4-d]pyrimidine] | 129
CCOc1nc(Oc2cc(C)nn2C)nc2oc(-c3cc(F)ccc3Cl)nc12 [Example 10, 2-(2-chloro-5-fluoro-phenyl)-5-(2,5-dimethyl-2H-pyrazol-3-yloxy)-7-ethoxy-oxazolo[5,4-d]pyrimidine] | 107
CCCOc1nc(OC2CCOCC2)nc2oc(-c3cccc(C)c3)nc12 [Example 71, 7-propoxy-5-(tetrahydro-pyran-4-yloxy)-2-(3-methyl-phenyl)-oxazolo[5,4-d]pyrimidine] | 102
CCCOc1nc(Oc2cc(F)cc(Cl)c2)nc2oc(-c3cccc(C)c3)nc12 [Example 138, 5-(3-chloro-5-fluoro-phenoxy)-7-propoxy-2-(3-methyl-phenyl)-oxazolo[5,4-d]pyrimidine] | 97
CCCOc1nc(Oc2cccc(OC)c2)nc2oc(-c3cccc(C)c3)nc12 [Example 118, 5-(3-methoxy-phenoxy)-7-propoxy-2-(3-methyl-phenyl)-oxazolo[5,4-d]pyrimidine] | 98
CCCOc1nc(Oc2cccc(N(C)C)c2)nc2oc(-c3cccc(C)c3)nc12 [Example 131, dimethyl-[3-(7-propoxy-2-(3-methyl-phenyl)-oxazolo[5,4-d]pyrimidin-5-yloxy)-phenyl]-amine] | 51
CCCOc1nc(Oc2cccc3c2OC(C)(C)C3)nc2oc(-c3cccc(C)c3)nc12 [Example 83, 5-(2,2-dimethyl-2,3-dihydro-benzofuran-7-yloxy)-7-propoxy-2-(3-methyl-phenyl)-oxazolo[5,4-d]pyrimidine] | 63
CCCOc1nc(Oc2ccc(C)cc2OC)nc2oc(-c3cccc(C)c3)nc12 [Example 135, 5-(2-methoxy-4-methyl-phenoxy)-7-propoxy-2-(3-methyl-phenyl)-oxazolo[5,4-d]pyrimidine] | 1
CCCOc1nc(Sc2ccccc2)nc2oc(-c3ccc(Cl)c(Cl)c3)nc12 [Example 156, 2-(3,4-dichloro-phenyl)-5-phenylsulfanyl-7-propoxy-oxazolo[5,4-d]pyrimidine] | 40
CCOc1nc(Oc2cccc(S(N)(=O)=O)c2)nc2oc(-c3cccc(C)c3)nc12 [Example 22, 3-(7-ethoxy-2-(3-methyl-phenyl)-oxazolo[5,4-d]pyrimidin-5-yloxy)-benzenesulfonamide] | 100
CCCOc1nc(Oc2cncc(F)c2)nc2oc(-c3cc(F)ccc3Cl)nc12 [Example 72, 2-(2-chloro-5-fluoro-phenyl)-5-(5-fluoro-pyridin-3-yloxy)-7-propoxy-oxazolo[5,4-d]pyrimidine] | 95
CCCOc1nc(Oc2ccc(C(F)(F)F)cc2Cl)nc2oc(-c3cccc(C)c3)nc12 [Example 145, 5-(2-chloro-4-trifluoromethyl-phenoxy)-7-propoxy-2-(3-methyl-phenyl)-oxazolo[5,4-d]pyrimidine] | 82
